# Reference: patent US7138361B2, “Herbicidal heterocycles” (E. I. du Pont de Nemours and Company, priority 2000, dated 2006)
# Columns and labels:
# Assay type in all cases: in vivo
# wild oat (Avena fatua) = assay: Test B postemergence; settings: Rate 500 g/ha, scale 0 to 100, 0 is no effect, 100 is complete control, 13 to 15 days
# In short: (§1)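 Post-treatment, species sat 13–15 days under greenhouse conditions before visual scoring against controls, 0 (no effect) through 100 (complete control). Application preemergence to sown seeds or postemergence at 1- to 4-leaf stage, using a non-phytotoxic solvent/surfactant formulation.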
# [1] = system: lambsquarters (Chenopodium album); assay: Test B postemergence; settings: Rate 500 g/ha, scale 0 to 100, 0 is no effect, 100 is complete control, 13 to 15 days
# In short: as §1
# [2] = system: crabgrass (Digitaria sanguinalis); assay: Test B postemergence; settings: 13 to 15 days
# In short: as §1
# Sunflower [3] = assay: Test C preemergence; settings: Rate 500 g/ha, visual evaluation after 12 to 14 days
# Nightshade = assay: Test C preemergence
# Excerpt: (§2) Seeds of plant species selected from bermudagrass (Cynodon dactylon), Surinam grass (Brachiaria decumbens), cocklebur (Xanthium strumarium), corn (Zea mays), crabgrass (Digitaria sanguinalis), woolly cupgrass (Eriochloa villosa), giant foxtail (Setaria faberii), goosegrass (Eleusine indica), johnsongrass (Sorghum halepense), kochia (Kochia scoparia), lambsquarters (Chenopodium album), morningglory (Ipomoea hederacea), yellow nutsedge (Cyperus esculentus), pigweed (Amaranthus retroflexus), common ragweed (Ambrosia elatior), soybean (Glycine max) and velvetleaf (Abutilon theophrasti) were planted and treated preemergence with test chemicals formulated in a non-phytotoxic solvent mixture which included a surfactant.
# (§3) At the same time, plants selected from these crop and weed species and also winter barley (Hordeum vulgare), blackgrass (Alopecurus myosuroides), canary grass (Phalaris minor), chickweed (Stellaria media), downy brome (Bromus tectorum), green foxtail (Setaria viridis), Italian ryegrass (Lolium multiflorum), wheat (Triticum aestivum), wild oat (Avena fatua) and windgrass (Apera spica-venti) were treated with postemergence applications of some of the test chemicals formulated in the same manner. Plants ranged in height from 2 to 18 cm (1- to 4-leaf stage) for postemergence treatments. Plant species in the flooded paddy test consisted of rice (Oryza saliva), smallflower flatsedge (Cyperus difformis), duck salad (Heteranthera limosa) and barnyardgrass (Echinochloa crus-galli) grown to the 2-leaf stage for testing. Treated plants and controls were maintained in a greenhouse for 12 to 14 days, after which time all species were compared to controls and visually evaluated. Plant response ratings, summarized in Table C, are based on a scale of 0 to 100 where 0 is no effect and 100 is complete control. A dash (-) response means no test result.
# [4] = system: Surinam grass (Brachiaria decumbens); assay: Test C preemergence; settings: for Plant response rating (0 to 100), Surinam grass: Rate 500 g/ha, visual evaluation after 12 to 14 days
# Excerpt: as §2, §3
# corn (Zea mays) = assay: Test C preemergence; settings: for Plant response rating (0 to 100), Corn: Rate 500 g/ha, visual evaluation after 12 to 14 days
# Excerpt: as §2, §3
# [5] = system: pigweed (Amaranthus retroflexus); assay: Test C preemergence; settings: for Plant response rating (0 to 100), Pigweed: Rate 500 g/ha, visual evaluation after 12 to 14 days
# Excerpt: as §2, §3
# [6] = system: bermudagrass (Cynodon dactylon); assay: Test C preemergence; settings: for Plant response rating (0 to 100 where 0 is no effect and 100 is complete control), Bermudagrass: Rate 500 g/ha, visual evaluation after 12 to 14 days
# Excerpt: as §2, §3
# [7] = system: lambsquarters (Chenopodium album); assay: Test C preemergence; settings: for Plant response rating (0 to 100), Lambsquarters: Rate 500 g/ha, visual evaluation after 12 to 14 days
# Excerpt: as §2, §3
# [8] = system: cocklebur (Xanthium strumarium); assay: Test C preemergence; settings: for Plant response rating (0 to 100), Cocklebur: Rate 500 g/ha, visual evaluation after 12 to 14 days
# Excerpt: as §2, §3
# soybean (Glycine max) = assay: Test C preemergence; settings: for Plant response rating (0 to 100), Soybean: Rate 500 g/ha, visual evaluation after 12 to 14 days
# Excerpt: as §2, §3
# [9] = system: velvetleaf (Abutilon theophrasti); assay: Test C preemergence; settings: for Plant response rating (0 to 100), Velvetleaf: Rate 500 g/ha, visual evaluation after 12 to 14 days
# Excerpt: as §2, §3
# [10] = system: woolly cupgrass (Eriochloa villosa); assay: Test C preemergence; settings: for Plant response rating (0 to 100), Cupgrass, Woolly: Rate 500 g/ha, visual evaluation after 12 to 14 days
# Excerpt: as §2, §3
# [11] = system: common ragweed (Ambrosia elatior); assay: Test C preemergence; settings: for Plant response rating (0 to 100), Ragweed, Common: Rate 500 g/ha, visual evaluation after 12 to 14 days
# Excerpt: as §2, §3
# Sunflower [12] = assay: Test C preemergence; settings: Rate 125 g/ha; scale 0 to 100, 0 no effect, 100 complete control
# Excerpt: as §2, §3
# kochia (Kochia scoparia) = assay: Test C preemergence; settings: for Plant response rating (0 to 100), Kochia: Rate 500 g/ha, visual evaluation after 12 to 14 days
# Excerpt: as §2, §3
# [13] = system: johnsongrass (Sorghum halepense); assay: Test C preemergence; settings: for Plant response rating (0 to 100), Johnsongrass: Rate 500 g/ha, visual evaluation after 12 to 14 days
# Excerpt: as §2, §3
# [14] = system: giant foxtail (Setaria faberii); assay: Test C preemergence; settings: for Plant response rating (0 to 100), Foxtail, Giant: Rate 500 g/ha, visual evaluation after 12 to 14 days
# Excerpt: as §2, §3
# [15] = Rate 125 g/ha, scale 0 (no effect) to 100 (complete control)
# [16] = Rate 500 g/ha, scale 0 to 100, 0 is no effect, 100 is complete control
# [17] = Rate 125 g/ha, scale 0 to 100, 0 no effect, 100 complete control
# [18] = Rate 250 g/ha, scale 0 to 100, 0 no effect, 100 complete control
# [19] = preemergence, Rate 62 g/ha, scale 0 to 100
# [20] = preemergence, Rate 250 g/ha, scale 0 to 100, 0 no effect, 100 complete control
structure (smiles),measurement,setting,value
CCCC(C)c1ccn(C2CCN(c3cccc(OC)c3)C2=O)n1 (stereo not drawn) [Compound 99],"Plant response rating, Wild Oat",wild oat (Avena fatua),0
same,"Plant response rating, Lambsquarters",[1],70
same,"Plant response rating, Crabgrass",[2]; [15],0
same,"Plant response rating, Crabgrass",[2]; [16],0
same,"Plant response rating (0 to 100), Sunflower",Sunflower [3],0
same,"Plant response rating, Nightshade","Nightshade; Rate 62 g/ha, scale 0 to 100",0
same,"Plant response rating, Nightshade",Nightshade; [17],0
same,"Plant response rating, Nightshade",Nightshade; [18],0
same,"Plant response rating, Surinam grass",[4]; [17],0
same,"Plant response rating, Surinam grass",[4]; [19],0
same,"Plant response rating (0 to 100), Surinam grass",[4]; preemergence,90
same,"Plant response rating, Surinam grass",[4]; [20],0
same,"Plant response rating, Corn",corn (Zea mays); [17],0
same,"Plant response rating, Corn",corn (Zea mays); [19],0
same,"Plant response rating (0 to 100), Corn",corn (Zea mays); preemergence,20
same,"Plant response rating, Corn",corn (Zea mays); [20],0
same,"Plant response rating, Pigweed",[5]; [17],90
same,"Plant response rating, Pigweed",[5]; [19],0
same,"Plant response rating (0 to 100), Pigweed",[5]; preemergence,70
same,"Plant response rating, Pigweed",[5]; [20],20
same,"Plant response rating, Bermudagrass",[6]; [17],90
same,"Plant response rating, Bermudagrass",[6]; [19],90
same,"Plant response rating (0 to 100 where 0 is no effect and 100 is complete control), Bermudagrass",[6]; preemergence,100
same,"Plant response rating, Bermudagrass",[6]; [20],100
same,"Plant response rating, Lambsquarters",[7]; [17],100
same,"Plant response rating, Lambsquarters",[7]; [19],100
same,"Plant response rating (0 to 100), Lambsquarters",[7]; preemergence,100
same,"Plant response rating, Lambsquarters",[7]; [20],100
same,"Plant response rating, Cocklebur",[8]; [17],0
same,"Plant response rating, Cocklebur",[8]; [19],0
same,"Plant response rating (0 to 100), Cocklebur",[8]; preemergence,0
same,"Plant response rating, Cocklebur",[8]; [20],0
same,"Plant response rating, Soybean",soybean (Glycine max); [17],0
same,"Plant response rating, Soybean",soybean (Glycine max); [19],0
same,"Plant response rating (0 to 100), Soybean",soybean (Glycine max); preemergence,0
same,"Plant response rating, Soybean",soybean (Glycine max); [20],0
same,"Plant response rating, Velvetleaf",[9]; [17],0
same,"Plant response rating, Velvetleaf",[9]; [19],0
same,"Plant response rating (0 to 100), Velvetleaf",[9]; preemergence,0
same,"Plant response rating, Velvetleaf",[9]; [20],0
same,"Plant response rating, Cupgrass, Woolly",[10]; [17],0
same,"Plant response rating, Cupgrass, Woolly",[10]; [19],0
same,"Plant response rating (0 to 100), Cupgrass, Woolly",[10]; preemergence,100
same,"Plant response rating, Cupgrass, Woolly",[10]; [20],10
same,"Plant response rating, Ragweed, Common",[11]; [17],0
same,"Plant response rating, Ragweed, Common",[11]; [19],0
same,"Plant response rating (0 to 100), Ragweed, Common",[11]; preemergence,0
same,"Plant response rating, Ragweed, Common",[11]; [20],0
same,"Plant response rating, Sunflower",Sunflower [12],0
same,"Plant response rating, Kochia",kochia (Kochia scoparia); [17],90
same,"Plant response rating, Kochia",kochia (Kochia scoparia); [19],80
same,"Plant response rating (0 to 100), Kochia",kochia (Kochia scoparia); preemergence,100
same,"Plant response rating, Kochia",kochia (Kochia scoparia); [20],90
same,"Plant response rating, Johnsongrass",[13]; [17],0
same,"Plant response rating, Johnsongrass",[13]; [19],0
same,"Plant response rating (0 to 100), Johnsongrass",[13]; preemergence,90
same,"Plant response rating, Johnsongrass",[13]; [20],0
same,"Plant response rating, Foxtail, Giant",[14]; [17],20
same,"Plant response rating, Foxtail, Giant",[14]; [19],10
same,"Plant response rating (0 to 100), Foxtail, Giant",[14]; preemergence,70
same,"Plant response rating, Foxtail, Giant",[14]; [20],20
CCCC(C)c1ccn(C2CCN(c3cccc(C(F)(F)F)c3)C2=O)n1 (stereo not drawn) [Compound 100],"Plant response rating, Wild Oat",wild oat (Avena fatua),0
same,"Plant response rating, Lambsquarters",[1],80
same,"Plant response rating, Crabgrass",[2]; [15],0
same,"Plant response rating, Crabgrass",[2]; [16],0
same,"Plant response rating (0 to 100), Sunflower",Sunflower [3],0
same,"Plant response rating, Nightshade","Nightshade; Rate 62 g/ha, scale 0 to 100",0
same,"Plant response rating, Nightshade",Nightshade; [17],0
same,"Plant response rating, Nightshade",Nightshade; [18],0
same,"Plant response rating, Surinam grass",[4]; [17],0
same,"Plant response rating, Surinam grass",[4]; [19],0
same,"Plant response rating (0 to 100), Surinam grass",[4]; preemergence,30
same,"Plant response rating, Surinam grass",[4]; [20],0
same,"Plant response rating, Corn",corn (Zea mays); [19],20
same,"Plant response rating (0 to 100), Corn",corn (Zea mays); preemergence,20
same,"Plant response rating, Corn",corn (Zea mays); [20],20
same,"Plant response rating, Pigweed",[5]; [17],0
same,"Plant response rating, Pigweed",[5]; [19],0
same,"Plant response rating (0 to 100), Pigweed",[5]; preemergence,100
same,"Plant response rating, Pigweed",[5]; [20],20
same,"Plant response rating, Bermudagrass",[6]; [17],90
same,"Plant response rating, Bermudagrass",[6]; [19],90
same,"Plant response rating (0 to 100 where 0 is no effect and 100 is complete control), Bermudagrass",[6]; preemergence,100
same,"Plant response rating, Bermudagrass",[6]; [20],100
same,"Plant response rating, Lambsquarters",[7]; [17],100
same,"Plant response rating, Lambsquarters",[7]; [19],90
same,"Plant response rating (0 to 100), Lambsquarters",[7]; preemergence,100
same,"Plant response rating, Lambsquarters",[7]; [20],100
same,"Plant response rating, Cocklebur",[8]; [19],0
same,"Plant response rating (0 to 100), Cocklebur",[8]; preemergence,0
same,"Plant response rating, Cocklebur",[8]; [20],0
same,"Plant response rating, Soybean",soybean (Glycine max); [17],0
same,"Plant response rating, Soybean",soybean (Glycine max); [19],0
same,"Plant response rating (0 to 100), Soybean",soybean (Glycine max); preemergence,0
same,"Plant response rating, Soybean",soybean (Glycine max); [20],0
same,"Plant response rating, Velvetleaf",[9]; [17],0
same,"Plant response rating, Velvetleaf",[9]; [19],0
same,"Plant response rating (0 to 100), Velvetleaf",[9]; preemergence,0
same,"Plant response rating, Velvetleaf",[9]; [20],0
same,"Plant response rating, Cupgrass, Woolly",[10]; [17],20
same,"Plant response rating, Cupgrass, Woolly",[10]; [19],0
same,"Plant response rating (0 to 100), Cupgrass, Woolly",[10]; preemergence,100
same,"Plant response rating, Cupgrass, Woolly",[10]; [20],20
same,"Plant response rating, Ragweed, Common",[11]; [17],0
same,"Plant response rating, Ragweed, Common",[11]; [19],0
same,"Plant response rating (0 to 100), Ragweed, Common",[11]; preemergence,0
same,"Plant response rating, Ragweed, Common",[11]; [20],0
same,"Plant response rating, Sunflower",Sunflower [12],0
same,"Plant response rating, Kochia",kochia (Kochia scoparia); [17],0
same,"Plant response rating, Kochia",kochia (Kochia scoparia); [19],0
same,"Plant response rating (0 to 100), Kochia",kochia (Kochia scoparia); preemergence,100
same,"Plant response rating, Kochia",kochia (Kochia scoparia); [20],90
same,"Plant response rating, Johnsongrass",[13]; [17],90
same,"Plant response rating, Johnsongrass",[13]; [19],0
same,"Plant response rating (0 to 100), Johnsongrass",[13]; preemergence,100
same,"Plant response rating, Johnsongrass",[13]; [20],90
same,"Plant response rating, Foxtail, Giant",[14]; [17],10
same,"Plant response rating, Foxtail, Giant",[14]; [19],90
same,"Plant response rating (0 to 100), Foxtail, Giant",[14]; preemergence,100
same,"Plant response rating, Foxtail, Giant",[14]; [20],40
